Measured values taken from ChEMBL document CHEMBL4507298 (2021).

Columns and labels:
[1] = target: Dual specificity protein kinase CLK1 (Homo sapiens) (UniProt P49759); details: Compound concentration 1000.0 nM
[2] = target: Cyclin-dependent kinase-like 5 (Homo sapiens) (UniProt O76039); details: Compound concentration 1000.0 nM
[3] = target: Tyrosine-protein kinase SYK (Homo sapiens) (UniProt P43405); details: Compound concentration 1000.0 nM
[4] = system: Tyrosine-protein kinase ABL1 (Homo sapiens), P00519 [T315I]; details: Compound concentration 1000.0 nM
[5] = target: Inhibitor of nuclear factor kappa-B kinase subunit epsilon (Homo sapiens) (UniProt Q14164); details: Compound concentration 1000.0 nM
[6] = target: Mitogen-activated protein kinase kinase kinase 2 (Homo sapiens) (UniProt Q9Y2U5); details: Compound concentration 1000.0 nM
[7] = target: MAP kinase-interacting serine/threonine-protein kinase 1 (Homo sapiens) (UniProt Q9BUB5); details: Compound concentration 1000.0 nM
[8] = target: 1-phosphatidylinositol 3-phosphate 5-kinase (Homo sapiens) (UniProt Q9Y2I7); details: Compound concentration 1000.0 nM
[9] = target: Thromboxane A2 receptor (Homo sapiens, UniProt P21731); assay: Binding assay (TBXA2R)
Sequence of Thromboxane A2 receptor (P21731 whole entry): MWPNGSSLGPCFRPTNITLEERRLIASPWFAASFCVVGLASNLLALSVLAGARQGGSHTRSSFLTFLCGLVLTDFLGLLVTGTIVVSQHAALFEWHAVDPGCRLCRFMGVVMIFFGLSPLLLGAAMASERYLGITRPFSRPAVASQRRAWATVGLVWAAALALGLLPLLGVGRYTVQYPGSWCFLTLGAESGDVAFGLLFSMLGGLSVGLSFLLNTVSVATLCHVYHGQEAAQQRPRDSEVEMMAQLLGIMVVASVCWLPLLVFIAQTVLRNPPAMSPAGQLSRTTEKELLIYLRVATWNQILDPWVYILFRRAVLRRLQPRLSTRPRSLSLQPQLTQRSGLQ

[10] = target: Acetylcholinesterase (Homo sapiens) (UniProt P22303); assay: Acetylcholinesterase (h) CEREP ligand profiling; details: Compound concentration 10.0 uM
[11] = target: Dual specificity protein kinase CLK3 (Homo sapiens) (UniProt P49761); details: Compound concentration 1000.0 nM
[12] = target: Phosphatidylinositol 4-phosphate 5-kinase type-1 gamma (Homo sapiens) (UniProt O60331); details: Compound concentration 1000.0 nM
[13] = system: Tyrosine-protein kinase ABL1 (Homo sapiens), P00519 [H396P]; details: Compound concentration 1000.0 nM
[14] = target: Urotensin-2 receptor (Homo sapiens) (UniProt Q9UKP6); assay: UT (h) CEREP ligand profiling; details: Compound concentration 10.0 uM
[15] = target: Mitogen-activated protein kinase kinase kinase 4 (Homo sapiens) (UniProt Q9Y6R4); details: Compound concentration 1000.0 nM
[16] = target: Cyclin-dependent kinase-like 2 (Homo sapiens) (UniProt Q92772); details: Compound concentration 1000.0 nM
[17] = target: Na+ channel (site 2), sodium channel alpha subunit (Homo sapiens, UniProt P35498+P35499+Q01118+Q14524+Q15858+Q99250+Q9NY46+Q9UI33+Q9UQD0+Q9Y5Y9); assay: Na+ channel (site 2) CEREP ligand profiling; type: protein assay; details: compound concentration 10 uM
[18] = target: Insulin receptor (Homo sapiens) (UniProt P06213); details: Compound concentration 1000.0 nM
Sequence of Insulin receptor (Homo sapiens) (P06213 28-758 limits assumed): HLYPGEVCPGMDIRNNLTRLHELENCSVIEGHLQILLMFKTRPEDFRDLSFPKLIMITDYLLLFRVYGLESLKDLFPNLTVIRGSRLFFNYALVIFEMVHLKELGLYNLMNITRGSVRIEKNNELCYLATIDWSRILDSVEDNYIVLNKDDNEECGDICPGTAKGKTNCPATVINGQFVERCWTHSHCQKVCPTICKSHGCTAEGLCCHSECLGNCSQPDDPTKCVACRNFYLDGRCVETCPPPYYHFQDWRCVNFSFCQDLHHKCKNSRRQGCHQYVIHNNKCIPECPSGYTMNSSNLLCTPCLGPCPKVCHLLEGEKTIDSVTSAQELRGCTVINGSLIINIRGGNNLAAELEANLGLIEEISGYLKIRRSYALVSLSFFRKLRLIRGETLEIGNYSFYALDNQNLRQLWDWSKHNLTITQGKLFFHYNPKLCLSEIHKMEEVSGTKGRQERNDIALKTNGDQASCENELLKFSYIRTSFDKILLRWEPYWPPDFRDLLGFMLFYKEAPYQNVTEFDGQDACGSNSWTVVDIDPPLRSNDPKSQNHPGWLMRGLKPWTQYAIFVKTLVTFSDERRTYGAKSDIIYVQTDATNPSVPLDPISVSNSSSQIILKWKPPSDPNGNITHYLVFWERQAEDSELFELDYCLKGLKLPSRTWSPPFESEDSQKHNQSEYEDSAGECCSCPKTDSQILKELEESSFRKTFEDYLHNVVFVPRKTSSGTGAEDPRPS
Sequence of Insulin receptor (Homo sapiens) (P06213 763-1382 limits assumed): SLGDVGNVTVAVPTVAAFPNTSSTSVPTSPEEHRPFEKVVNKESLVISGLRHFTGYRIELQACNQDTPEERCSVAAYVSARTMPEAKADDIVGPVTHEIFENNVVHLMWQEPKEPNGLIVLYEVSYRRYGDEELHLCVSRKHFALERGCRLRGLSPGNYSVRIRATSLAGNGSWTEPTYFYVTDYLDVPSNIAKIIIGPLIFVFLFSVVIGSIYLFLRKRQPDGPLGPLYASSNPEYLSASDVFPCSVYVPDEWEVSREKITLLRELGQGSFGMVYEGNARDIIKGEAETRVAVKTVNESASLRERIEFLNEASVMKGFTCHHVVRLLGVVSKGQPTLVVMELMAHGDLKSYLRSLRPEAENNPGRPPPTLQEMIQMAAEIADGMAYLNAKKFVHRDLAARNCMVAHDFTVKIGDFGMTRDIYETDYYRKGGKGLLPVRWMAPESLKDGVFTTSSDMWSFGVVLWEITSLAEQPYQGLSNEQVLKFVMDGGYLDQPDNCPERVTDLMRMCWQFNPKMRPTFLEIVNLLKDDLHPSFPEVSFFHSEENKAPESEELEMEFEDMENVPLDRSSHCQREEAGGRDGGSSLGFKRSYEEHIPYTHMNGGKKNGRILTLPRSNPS

[19] = target: Voltage-dependent N-type calcium channel subunit alpha-1B (Homo sapiens) (UniProt Q00975); assay: Ca2+ channel (N) CEREP ligand profiling; details: Compound concentration 10.0 uM
[20] = target: T1, Alpha-2A adrenergic receptor (Homo sapiens) (UniProt P08913); assay: alpha 2A (h) CEREP ligand profiling; details: Compound concentration 10.0 uM
T1 sequence (whole entry): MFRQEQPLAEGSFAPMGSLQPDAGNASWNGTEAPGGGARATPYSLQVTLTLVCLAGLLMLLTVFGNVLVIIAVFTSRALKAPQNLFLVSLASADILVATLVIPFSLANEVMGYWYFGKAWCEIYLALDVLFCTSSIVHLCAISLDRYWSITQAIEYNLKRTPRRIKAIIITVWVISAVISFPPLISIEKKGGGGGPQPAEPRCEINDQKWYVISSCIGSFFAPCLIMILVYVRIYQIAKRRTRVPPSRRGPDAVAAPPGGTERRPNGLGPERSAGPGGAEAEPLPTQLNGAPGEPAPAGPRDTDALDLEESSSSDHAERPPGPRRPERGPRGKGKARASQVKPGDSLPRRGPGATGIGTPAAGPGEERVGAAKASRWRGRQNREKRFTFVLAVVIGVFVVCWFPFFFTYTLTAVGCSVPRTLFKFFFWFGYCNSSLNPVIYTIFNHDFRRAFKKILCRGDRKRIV

[21] = target: T2, Muscarinic acetylcholine receptor M1 (Homo sapiens) (UniProt P11229); assay: M1 (h) CEREP ligand profiling; details: Compound concentration 10.0 uM
T2 sequence (whole entry): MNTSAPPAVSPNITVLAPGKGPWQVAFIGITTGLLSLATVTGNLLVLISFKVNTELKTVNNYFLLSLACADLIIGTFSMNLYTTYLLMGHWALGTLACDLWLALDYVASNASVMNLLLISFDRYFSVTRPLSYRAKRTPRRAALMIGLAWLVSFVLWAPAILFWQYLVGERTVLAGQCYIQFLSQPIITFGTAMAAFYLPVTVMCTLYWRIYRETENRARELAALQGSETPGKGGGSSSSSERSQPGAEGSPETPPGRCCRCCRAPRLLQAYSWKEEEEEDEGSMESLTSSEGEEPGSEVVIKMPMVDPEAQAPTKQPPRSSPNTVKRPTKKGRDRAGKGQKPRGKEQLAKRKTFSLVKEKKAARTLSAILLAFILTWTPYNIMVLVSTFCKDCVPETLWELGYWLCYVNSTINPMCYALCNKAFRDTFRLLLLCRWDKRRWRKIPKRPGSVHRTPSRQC

[22] = target: Proto-oncogene tyrosine-protein kinase ROS (Homo sapiens) (UniProt P08922); details: Compound concentration 1000.0 nM
Sequence of Proto-oncogene tyrosine-protein kinase ROS (Homo sapiens) (P08922 whole entry): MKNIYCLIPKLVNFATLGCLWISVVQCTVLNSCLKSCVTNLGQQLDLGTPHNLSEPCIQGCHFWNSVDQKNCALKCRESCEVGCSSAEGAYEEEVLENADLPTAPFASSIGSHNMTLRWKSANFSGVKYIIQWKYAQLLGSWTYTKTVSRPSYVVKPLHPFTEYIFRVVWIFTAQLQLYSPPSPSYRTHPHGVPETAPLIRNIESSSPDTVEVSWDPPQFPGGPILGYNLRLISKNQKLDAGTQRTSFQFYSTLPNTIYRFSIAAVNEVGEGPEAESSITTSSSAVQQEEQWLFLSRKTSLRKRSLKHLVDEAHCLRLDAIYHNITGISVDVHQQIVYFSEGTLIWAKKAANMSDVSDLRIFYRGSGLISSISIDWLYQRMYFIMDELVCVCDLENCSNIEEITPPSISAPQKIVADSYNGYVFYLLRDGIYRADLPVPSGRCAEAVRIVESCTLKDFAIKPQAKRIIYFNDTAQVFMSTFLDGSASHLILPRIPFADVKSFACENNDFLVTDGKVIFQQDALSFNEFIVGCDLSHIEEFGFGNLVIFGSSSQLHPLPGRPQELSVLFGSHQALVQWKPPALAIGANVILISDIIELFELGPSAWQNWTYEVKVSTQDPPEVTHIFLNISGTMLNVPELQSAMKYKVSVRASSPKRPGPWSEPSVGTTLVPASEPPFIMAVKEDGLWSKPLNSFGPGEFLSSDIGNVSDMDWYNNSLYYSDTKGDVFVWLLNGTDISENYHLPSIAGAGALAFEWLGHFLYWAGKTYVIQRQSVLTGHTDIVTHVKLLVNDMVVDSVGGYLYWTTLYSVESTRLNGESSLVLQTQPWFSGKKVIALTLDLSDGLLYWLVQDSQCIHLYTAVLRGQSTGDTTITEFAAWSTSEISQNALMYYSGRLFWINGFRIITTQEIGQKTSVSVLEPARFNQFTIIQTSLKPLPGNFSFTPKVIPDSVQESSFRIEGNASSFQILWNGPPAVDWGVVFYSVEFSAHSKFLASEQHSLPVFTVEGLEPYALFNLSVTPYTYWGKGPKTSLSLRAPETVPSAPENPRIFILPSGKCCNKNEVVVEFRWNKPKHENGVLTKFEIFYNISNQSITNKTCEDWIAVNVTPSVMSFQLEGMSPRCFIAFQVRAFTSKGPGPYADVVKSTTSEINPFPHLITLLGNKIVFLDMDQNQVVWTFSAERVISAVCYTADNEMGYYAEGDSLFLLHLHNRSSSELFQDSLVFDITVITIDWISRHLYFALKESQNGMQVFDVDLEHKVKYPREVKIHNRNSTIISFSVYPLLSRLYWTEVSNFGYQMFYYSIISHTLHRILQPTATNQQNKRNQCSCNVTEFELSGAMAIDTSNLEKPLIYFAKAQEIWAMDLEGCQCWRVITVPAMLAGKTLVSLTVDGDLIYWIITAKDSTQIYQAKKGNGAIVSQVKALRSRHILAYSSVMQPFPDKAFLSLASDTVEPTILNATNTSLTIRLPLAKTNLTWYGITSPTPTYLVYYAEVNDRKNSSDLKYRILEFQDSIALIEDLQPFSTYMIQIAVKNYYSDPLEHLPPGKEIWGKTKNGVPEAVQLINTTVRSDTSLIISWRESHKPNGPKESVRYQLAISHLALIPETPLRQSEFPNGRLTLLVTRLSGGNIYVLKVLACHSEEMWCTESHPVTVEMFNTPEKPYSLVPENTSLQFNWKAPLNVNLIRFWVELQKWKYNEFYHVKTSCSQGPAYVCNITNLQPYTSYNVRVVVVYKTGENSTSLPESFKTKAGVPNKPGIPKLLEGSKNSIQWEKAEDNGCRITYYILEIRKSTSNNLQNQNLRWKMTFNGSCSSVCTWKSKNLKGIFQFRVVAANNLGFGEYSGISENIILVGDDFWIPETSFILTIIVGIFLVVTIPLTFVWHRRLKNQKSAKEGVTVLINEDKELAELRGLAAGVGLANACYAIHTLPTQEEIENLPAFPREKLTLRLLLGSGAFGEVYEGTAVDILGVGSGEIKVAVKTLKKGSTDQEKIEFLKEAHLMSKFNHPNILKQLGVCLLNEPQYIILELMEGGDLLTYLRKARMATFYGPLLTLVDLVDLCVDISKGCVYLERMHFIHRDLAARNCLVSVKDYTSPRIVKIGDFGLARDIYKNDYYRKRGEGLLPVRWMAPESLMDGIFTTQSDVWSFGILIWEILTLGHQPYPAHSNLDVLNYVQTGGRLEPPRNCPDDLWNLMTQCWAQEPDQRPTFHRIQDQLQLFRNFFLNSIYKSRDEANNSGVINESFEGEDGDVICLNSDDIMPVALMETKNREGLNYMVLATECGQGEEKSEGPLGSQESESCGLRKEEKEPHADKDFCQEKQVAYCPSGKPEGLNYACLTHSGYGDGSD

[23] = target: Ephrin type-B receptor 3 (Homo sapiens) (UniProt P54753); details: Compound concentration 1000.0 nM
Sequence of Ephrin type-B receptor 3 (Homo sapiens) (P54753 whole entry): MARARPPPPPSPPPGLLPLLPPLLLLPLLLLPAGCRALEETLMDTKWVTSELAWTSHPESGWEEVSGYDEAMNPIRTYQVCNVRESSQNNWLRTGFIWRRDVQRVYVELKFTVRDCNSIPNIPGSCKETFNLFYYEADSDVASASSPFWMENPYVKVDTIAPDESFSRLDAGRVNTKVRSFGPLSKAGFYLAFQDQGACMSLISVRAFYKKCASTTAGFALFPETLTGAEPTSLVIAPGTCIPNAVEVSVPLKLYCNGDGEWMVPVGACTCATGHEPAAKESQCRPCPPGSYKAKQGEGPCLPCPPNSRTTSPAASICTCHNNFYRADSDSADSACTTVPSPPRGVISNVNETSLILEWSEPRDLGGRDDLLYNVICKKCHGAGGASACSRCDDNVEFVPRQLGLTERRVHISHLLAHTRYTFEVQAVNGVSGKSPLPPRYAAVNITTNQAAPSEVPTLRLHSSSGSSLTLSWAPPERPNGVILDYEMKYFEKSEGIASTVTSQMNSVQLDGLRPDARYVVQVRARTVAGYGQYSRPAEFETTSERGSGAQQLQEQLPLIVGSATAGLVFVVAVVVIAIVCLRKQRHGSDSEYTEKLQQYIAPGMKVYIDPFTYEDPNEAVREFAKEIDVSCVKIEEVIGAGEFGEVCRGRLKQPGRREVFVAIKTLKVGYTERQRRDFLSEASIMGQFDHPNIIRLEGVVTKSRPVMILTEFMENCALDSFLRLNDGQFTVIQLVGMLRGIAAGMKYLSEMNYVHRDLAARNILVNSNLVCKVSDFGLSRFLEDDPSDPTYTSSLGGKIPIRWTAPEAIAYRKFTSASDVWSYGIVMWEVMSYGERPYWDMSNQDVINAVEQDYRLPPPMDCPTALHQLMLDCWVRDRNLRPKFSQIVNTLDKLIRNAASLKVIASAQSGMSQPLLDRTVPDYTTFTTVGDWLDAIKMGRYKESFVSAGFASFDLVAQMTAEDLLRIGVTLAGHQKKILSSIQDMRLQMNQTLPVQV

[24] = target: Voltage-gated L-type calcium channel (diltiazem site) (Homo sapiens, UniProt O60840+Q01668+Q13698+Q13936); assay: Ca2+ channel (L, diltiazem site) CEREP ligand profiling; type: protein assay; details: compound concentration 10 uM
[25] = target: Cyclin-dependent kinase 3 (Homo sapiens) (UniProt Q00526); details: Compound concentration 1000.0 nM
[26] = target: Serine/threonine-protein kinase 36 (Homo sapiens) (UniProt Q9NRP7); details: Compound concentration 1000.0 nM
[27] = target: Melatonin receptor type 1A (Homo sapiens) (UniProt P48039); assay: ML1 CEREP ligand profiling; details: Compound concentration 10.0 uM
[28] = target: Serine/threonine-protein kinase PAK 4 (Homo sapiens) (UniProt O96013); details: Compound concentration 1000.0 nM
[29] = target: Angiotensin-converting enzyme (Homo sapiens) (UniProt P12821); assay: ACE (h) CEREP ligand profiling; details: Compound concentration 10.0 uM
[30] = target: Tyrosine-protein kinase receptor Tie-1 (Homo sapiens) (UniProt P35590); details: Compound concentration 1000.0 nM
[31] = target: Sigma non-opioid intracellular receptor 1 (Homo sapiens) (UniProt Q99720); details: Compound concentration 10.0 uM
[32] = species on record: Rattus norvegicus; details: Compound concentration 10.0 uM

COc1ccc2cc(OCC3(C(=O)O)CN(C(=O)c4ccc(F)cc4)C3)ccc2c1 [PF-04418948]
residual activity [1]: 79%
residual activity [2]: 97%
residual activity [3]: 64%
residual activity [4]: 84%
residual activity [5]: 95%
residual activity [6]: 96%
residual activity [7]: 93%
residual activity [8]: 91%
Ki [9]: > 10 µM (not active)
inhibition [10]: 45%
residual activity [11]: 99%
residual activity [12]: 84%
residual activity [13]: 74%
inhibition [14]: 14%
residual activity [15]: 65%
residual activity [16]: 89%
inhibition at 10 µM [17]: 9% (not active)
residual activity [18]: 93%
inhibition [19]: -7%
inhibition [20]: 26%
inhibition [21]: 9%
residual activity [22]: 81%
residual activity [23]: 99%
inhibition at 10 µM [24]: 6% (not active)
residual activity [25]: 83%
residual activity [26]: 89%
inhibition [27]: -3%
residual activity [28]: 94%
inhibition [29]: 14%
residual activity [30]: 100%

O=C(c1ccc(F)cc1)N1CC(COc2ccc(Br)cc2)(C(=O)O)C1 [PF-04475866]
inhibition [31]: 20.3%
inhibition [32]: 16.3%
